Results published in patent US6248895A, “Benzofuroxan compound, method of preparation, pharmaceutical composition and method of treatment using the same” (Torrent Pharmaceuticals Ltd., priority 1998, dated 2001).

Key:
[1] = system: vasopressin induced T-wave elevation; assay: Anti-anginal effect: suppression of vasopressin induced T-wave elevation in anesthetized guinea pigs; assay type: in vivo, guinea pig; conditions: for Selectivity Index A/B (C): ED20 for fall in B.P. (A) / ED50 for T-wave inhibition (B); for Dose required for 50% inhibition of T-wave (ED50) (B): i.v.
Description: b) In vivo Pharmacological Screening
A modified method of Benedini et al (1995) was adopted for studying the anti-anginal effect of the chosen compounds. Guinea pigs of either sex, weighing approximately 400-600 g were used for this study. Animals were anesthetized with urethane (1.25 g/kg, i.p.) and jugular vein was cannulated for intravenous administration of drugs/vehicle. Mean arterial blood pressure (MABP) was monitored by a cannula inserted into the right carotid artery and connected to a pressure transducer. Standard limb lead II electrocardiogram was recorded continuously. All the recordings were carried out on a MacLab system (AD Instruments, UK).
The ability of the test compounds to suppress the vasopressin induced T-wave elevation was used as the model for studying the anti-anginal effects of the compounds. Guinea pigs were divided into two groups for the purpose of this study, i) control group (pretreated with the vehicle for the compound) and ii) drug treated group.
In this group of animals the solvent used for dissolving the test compound was administered intravenously in a volume of 1 ml/kg. The basal T-wave heights, heart rates and MABP and changes after vehicle administration were noted. Thirty seconds later 1 I.U./ml/kg of vasopressin was administered intravenously. The T-wave heights, heart rates and MABP and their changes after vasopressin administration were also noted. The T-wave elevation (after vasopressin administration), maximum rise in MABP, and changes in heart rate were calculated from the above data and expressed as mean±standard deviation.
The effects of the test compound in suppressing the T-wave elevation caused by vasopressin were evaluated with atleast three dose levels. Groups of 6 guinea pigs were used for each dose. The test compound was injected 30 seconds prior to vasopressin administration. Changes in MABP, heart rate and T-waves were recorded as described for the control group. The percentage inhibition of vasopressin induced T-wave elevation was calculated for each dose taking the T-wave height estimated in control group as 100%. From the dose vs percent inhibition relationship, the dose required for 50% inhibition (ED50) for the T-wave elevation was estimated.
In a separate group of animals the drop in MABP after administration of the test compound (dose range of 0.1-1000 μg/kg, i.v.) was studied. Atleast three animals were used for each dose. Care was taken so that the doses were given only after the MABP had stabilized from the effects of the previous dose. All doses were injected in a final volume of 1 ml/kg. […] From this graph the dose required to produce a 20% fall in MABP (ED20) was calculated. The specificity of the test compound was defined by the selectivity index, which was shown below: [formula]

[2] = system: thoracic aorta (albino rabbit, helical strips, endothelium removed); assay: In vitro screening of NO donors: relaxation of endothelium-denuded rabbit thoracic aorta strips, before and after GTN-induced tolerance; assay type: cell-based; conditions: relative to GTN; for Mean Relative Potency After Tolerance: after tolerance induced by 440 μM GTN for 90 min
Procedure: a) In vitro Screening of NO Donors
The method adopted was a modified method of Nishikawa et al (1982). Albino rabbits of either sex were stunned and exsanguinated. Thoracic aorta was quickly removed and cut helically (at an angle of […]) into strips 4-5 mm wide and 25 to 30 mm long, after removal of adventitial connective tissue. The endothelium was rubbed off gently using a cotton swab soaked in Kreb's solution. Two strips were fixed vertically in organ baths containing 20 ml. Kreb's solution maintained at 37° C. and bubbled with oxygen. A resting tension of 4 g was applied and the preparation was allowed to equilibrate for 30 min. Each preparation was exposed to two primer doses of KCl (30 mM). After the contraction reached a maximum, the bath was drained off and replaced with fresh Kreb's solution. Half an hour later, cumulative dose response curve for the test compound was taken on one tissue (test) and for glyceryl trinitrate (GTN) in the other (standard). The dose range used was from 10^-9 M to 10^-3 M with a contact period of 4 min. for each dose.
Tolerance was induced in both the tissues by adding 440 μM of GTN for 90 minutes. During this period the bath solution was changed every 30 min. and 440 μM of GTN was replaced. Later both the tissues were washed thoroughly and the dose response curve (DRC) for both the test and the standard were repeated. The percentage relaxation with individual doses was calculated by taking the maximum relaxations to 10^-4 M papaverine as 100% relaxation. A graph was plotted by taking the percentage relaxation vs the log (M) concentration of the compounds.

MABP = assay: Drop in mean arterial blood pressure (MABP) after i.v. administration; assay type: in vivo, guinea pig; conditions: 20% fall in MABP
Procedure: Guinea pigs of either sex, weighing approximately 400-600 g were used for this study. […] Standard limb lead II electrocardiogram was recorded continuously. All the recordings were carried out on a MacLab system (AD Instruments, UK).
Determination of the Ed20 Values for Drop in Mabp
Atleast three animals were used for each dose. […] All doses were injected in a final volume of 1 ml/kg. […] The specificity of the test compound was defined by the selectivity index, which was shown below: [formula]

[3] = conventional nitrates like GTN; cited from earlier work
[4] = 30 seconds prior to vasopressin 1 I.U./ml/kg

Compound: O=C(OCc1cccnc1)c1ccc2c(c1)no[n+]2[O-] [Compound 9, 5(6)-(3-pyridinemethoxycarbonyl) benzofuroxan]
- Selectivity Index A/B (C) [1]: 0.61
- selectivity index as compared to GTN (in words) [1]: high selectivity index as compared to GTN
- Dose required for 50% inhibition of T-wave (ED50) (B) [1, 4]: 0.37285 mg/kg
- Mean Relative Potency After Tolerance [2]: 8.05
- Mean Relative Potency Before Tolerance [2]: 0.53
- Dose needed for 20% fall in B.P. (ED20) (A) (MABP): 0.22716 mg/kg

Compound: CC(O)COC(=O)c1ccc2c(c1)no[n+]2[O-] (stereo not drawn) [Compound 4, 5(6)-(2-hydroxypropyloxycarbonyl) benzofuroxan]
- Mean Relative Potency After Tolerance [2]: 11.22
- Mean Relative Potency Before Tolerance [2]: 0.28

Compound: O=C(OC1COC2C(O[N+](=O)[O-])COC12)c1ccc2c(c1)no[n+]2[O-] (stereo not drawn) [Compound 11, 5(6)-(isosorbide mononitrateoxy carbonyl) benzofuroxan]
- Mean Relative Potency After Tolerance [2]: 7
- Mean Relative Potency Before Tolerance [2]: 0.25

Compound: COCCOC(=O)c1ccc2c(c1)no[n+]2[O-] [Compound 6, 5(6)-(2-methyloxyethyloxycarbonyl) benzofuroxan]
- Selectivity Index A/B (C) [1]: 0.67
- selectivity index as compared to GTN (in words) [1]: high selectivity index as compared to GTN
- Dose required for 50% inhibition of T-wave (ED50) (B) [1, 4]: 0.3379 mg/kg
- Mean Relative Potency After Tolerance [2]: 17.02
- Mean Relative Potency Before Tolerance [2]: 0.97
- Dose needed for 20% fall in B.P. (ED20) (A) (MABP): 0.22634 mg/kg

Compound: O=C(OCC(O)CO)c1ccc2c(c1)no[n+]2[O-] (stereo not drawn) [Compound 7, 5(6)-(2,3-dihydroxypropyloxycarbonyl) benzofuroxan]
- Mean Relative Potency After Tolerance [2]: 3.49
- Mean Relative Potency Before Tolerance [2]: 0.17

Compound: O=C(OCCN1CCCC1=O)c1ccc2c(c1)no[n+]2[O-] [Compound 3, 5(6)-(2-pyrolidinone ethyloxycarbonyl) benzofuroxan]
- Selectivity Index A/B (C) [1]: 0.152
- Dose required for 50% inhibition of T-wave (ED50) (B) [1, 4]: 0.67561 mg/kg
- Mean Relative Potency After Tolerance [2]: 25
- Mean Relative Potency Before Tolerance [2]: 0.11
- Dose needed for 20% fall in B.P. (ED20) (A) (MABP): 0.13952 mg/kg

Compound: O=C(NCCOC(=O)c1ccc2c(c1)no[n+]2[O-])c1ccncc1 [Compound 2, 5(6)-(2-isonicotinamideethyloxycarbonyl)benzofuroxan]
- Mean Relative Potency After Tolerance [2]: 6.94
- Mean Relative Potency Before Tolerance [2]: 0.06

Compound: O=[N+]([O-])OCC(CO[N+](=O)[O-])O[N+](=O)[O-] [GTN, glyceryl trinitrate, reference compound]
- ED50 ([1]; Cavia porcellus, iv, 30 seconds prior to vasopressin 1 I.U./ml/kg, read-out: Dose required for 50% inhibition of T-wave (ED50) (B)): 0.474 mg/kg
- Selectivity Index A/B (C) [1]: ~0.017
- side effects as a manifestation of hypotensive effect [3]: tachycardia, retrosternal discomfort, palpitations, collapse, syncope and postural hypotension
- ED20 (MABP; Cavia porcellus, iv, read-out: Dose needed for 20% fall in B.P. (ED20) (A)): 0.00822 mg/kg

Compound: O=C(OCCN1CCOCC1)c1ccc2c(c1)no[n+]2[O-] [Compound 5, 5(6)-(2-morpholinoethyloxycarbonyl)benzofuroxan]
- Mean Relative Potency After Tolerance [2]: 4.12
- Mean Relative Potency Before Tolerance [2]: 0.18

Compound: 5(6)-(2-nicotinamide ethyloxycarbonyl) benzofuroxan hydrochloride [Compound 1]
- Selectivity Index A/B (C) [1]: 0.517
- selectivity index as compared to GTN (in words) [1]: high selectivity index as compared to GTN
- Dose required for 50% inhibition of T-wave (ED50) (B) [1, 4]: 0.88642 mg/kg
- Mean Relative Potency After Tolerance [2]: 8.4
- Mean Relative Potency Before Tolerance [2]: 0.2
- Dose needed for 20% fall in B.P. (ED20) (A) (MABP): 0.45802 mg/kg

Compound: CCOCCOC(=O)c1ccc2c(c1)no[n+]2[O-] [Compound 8, 5(6)-(2-ethoxyethyloxycarbonyl) benzofuroxan]
- Mean Relative Potency After Tolerance [2]: 11.9
- Mean Relative Potency Before Tolerance [2]: 0.2

Compound: CC1(C)OCC(COC(=O)c2ccc3c(c2)no[n+]3[O-])O1 (racemic) [Compound 10, 5(6)-((±)-2,2-dimethyl-1,3-dioxolane-4-methyloxycarbonyl) benzofuroxan]
- Selectivity Index A/B (C) [1]: 0.58
- selectivity index as compared to GTN (in words) [1]: high selectivity index as compared to GTN
- Dose required for 50% inhibition of T-wave (ED50) (B) [1, 4]: 0.492 mg/kg
- Mean Relative Potency After Tolerance [2]: 10.13
- Mean Relative Potency Before Tolerance [2]: 0.39
- Dose needed for 20% fall in B.P. (ED20) (A) (MABP): 0.286 mg/kg
